Source: PubChem BioAssay (NCI)
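Grown in 96-well plates, cells were treated for 48 hours with each compound at five concentrations. Insufficient inhibition: endpoint recorded as highest concentration tested. At the TGI there is no net growth.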

Experiments:
Assay in all cases: NCI-60 cell line screen, 48 h
[1] = test system: DMS 114 small cell lung
[2] = test system: SK-MEL-5 melanoma
[3] = test system: NCI-H460 lung
[4] = test system: SK-OV-3 ovarian
[5] = test system: OVCAR-8 ovarian
[6] = test system: CAKI-1 renal
[7] = test system: HT29 colon
[8] = test system: KM12 colon
[9] = test system: SF-295 CNS
[10] = test system: HCT-15 colon
[11] = test system: XF 498 CNS
[12] = test system: A498 renal
[13] = test system: RXF 393 renal
[14] = test system: KM20L2 colon
[15] = test system: NCI-H23 lung
[16] = test system: UACC-62 melanoma
[17] = test system: SN12C renal
[18] = test system: M19-MEL melanoma
[19] = test system: UO-31 renal
[20] = test system: HOP-18 NSCLC
[21] = test system: MALME-3M melanoma
[22] = test system: SK-MEL-2 melanoma
[23] = test system: LOX IMVI melanoma
[24] = test system: OVCAR-5 ovarian
[25] = test system: 786-0 renal
[26] = test system: M14 melanoma
[27] = test system: RPMI-8226 leukemia
[28] = test system: HOP-92 NSCLC
[29] = test system: CCRF-CEM leukemia
[30] = test system: HCT-116 colon
[31] = test system: SR leukemia
[32] = test system: SW-620 colon
[33] = test system: DMS 273 small cell lung
[34] = test system: DLD-1 colon
[35] = test system: HOP-62 NSCLC
[36] = test system: SF-539 CNS
[37] = test system: SNB-19 CNS
[38] = test system: A549 NSCLC
[39] = test system: SNB-75 CNS
[40] = test system: UACC-257 melanoma
[41] = test system: K-562 leukemia
[42] = test system: OVCAR-3 ovarian
[43] = test system: NCI-H522 lung
[44] = test system: IGROV1 ovarian
[45] = test system: SNB-78 CNS
[46] = test system: TK-10 renal
[47] = test system: LXFL 529 NSCLC
[48] = test system: SF-268 CNS
[49] = test system: EKVX NSCLC
[50] = test system: COLO 205 colon
[51] = test system: U251 CNS
[52] = test system: MOLT-4 leukemia
[53] = test system: NCI-H226 lung
[54] = test system: OVCAR-4 ovarian
[55] = test system: HL-60(TB) leukemia
[56] = test system: HCC-2998 colon
[57] = test system: SK-MEL-28 melanoma
[58] = test system: ACHN renal

SMILES: O=C1OC2C(O)COC2(O)C1(O)Cc1c[nH]c2ccccc12 (stereo not drawn)
- TGI [1]: > 100 µM
- TGI [2]: > 100 µM
- TGI [3]: > 100 µM
- TGI [4]: > 100 µM
- TGI [5]: > 100 µM
- TGI [6]: > 100 µM
- TGI [7]: > 100 µM
- TGI [8]: > 100 µM
- TGI [9]: > 100 µM
- TGI [10]: > 100 µM
- TGI [11]: > 100 µM
- TGI [12]: > 100 µM
- TGI [13]: > 100 µM
- TGI [14]: > 100 µM
- TGI [15]: > 100 µM
- TGI [16]: > 100 µM
- TGI [17]: > 100 µM
- TGI [18]: > 100 µM
- TGI [19]: > 100 µM
- TGI [20]: > 100 µM
- TGI [21]: > 100 µM
- TGI [22]: > 100 µM
- TGI [23]: > 100 µM
- TGI [24]: > 100 µM
- TGI [25]: > 100 µM
- TGI [26]: > 100 µM
- TGI [27]: > 100 µM
- TGI [28]: > 100 µM
- TGI [29]: > 100 µM
- TGI [30]: > 100 µM
- TGI [31]: > 100 µM
- TGI [32]: > 100 µM
- TGI [33]: > 100 µM
- TGI [34]: > 100 µM
- TGI [35]: > 100 µM
- TGI [36]: > 100 µM
- TGI [37]: > 100 µM
- TGI [38]: > 100 µM
- TGI [39]: > 100 µM
- TGI [40]: > 100 µM
- TGI [41]: > 100 µM
- TGI [42]: > 100 µM
- TGI [43]: > 100 µM
- TGI [44]: > 100 µM
- TGI [45]: > 100 µM
- TGI [46]: > 100 µM
- TGI [47]: > 100 µM
- TGI [48]: > 100 µM
- TGI [49]: > 100 µM
- TGI [50]: > 100 µM
- TGI [51]: > 100 µM
- TGI [52]: > 100 µM
- TGI [53]: > 100 µM
- TGI [54]: > 100 µM
- TGI [55]: > 100 µM

SMILES: CC(C)C(=O)N1C(=O)O[C@@H](c2ccccc2)[C@H]1C
- TGI [1]: > 100 µM
- TGI [2]: > 100 µM
- TGI [56]: > 100 µM
- TGI [3]: > 100 µM
- TGI [4]: > 100 µM
- TGI [5]: > 100 µM
- TGI [6]: 97.9 µM
- TGI [7]: > 100 µM
- TGI [8]: > 100 µM
- TGI [9]: > 100 µM
- TGI [10]: > 100 µM
- TGI [11]: > 100 µM
- TGI [12]: > 100 µM
- TGI [57]: > 100 µM
- TGI [13]: > 100 µM
- TGI [14]: > 100 µM
- TGI [15]: > 100 µM
- TGI [16]: > 100 µM
- TGI [17]: > 100 µM
- TGI [18]: > 100 µM
- TGI [19]: > 100 µM
- TGI [20]: > 100 µM
- TGI [21]: > 100 µM
- TGI [22]: > 100 µM
- TGI [23]: > 100 µM
- TGI [24]: > 100 µM
- TGI [25]: > 100 µM
- TGI [26]: > 100 µM
- TGI [27]: > 100 µM
- TGI [58]: > 100 µM
- TGI [28]: > 100 µM
- TGI [29]: > 100 µM
- TGI [30]: > 100 µM
- TGI [31]: > 100 µM
- TGI [32]: > 100 µM
- TGI [33]: > 100 µM
- TGI [34]: > 100 µM
- TGI [35]: > 100 µM
- TGI [36]: > 100 µM
- TGI [37]: > 64.7 µM
- TGI [38]: > 100 µM
- TGI [39]: > 100 µM
- TGI [40]: > 100 µM
- TGI [41]: > 100 µM
- TGI [42]: > 100 µM
- TGI [43]: > 100 µM
- TGI [44]: > 100 µM
- TGI [45]: > 100 µM
- TGI [46]: > 100 µM
- TGI [47]: > 100 µM
- TGI [48]: > 100 µM
- TGI [49]: > 100 µM
- TGI [50]: > 100 µM
- TGI [51]: > 100 µM
- TGI [52]: > 100 µM
- TGI [53]: > 100 µM
- TGI [54]: > 100 µM
- TGI [55]: > 100 µM
